# Data taken from patent US20250280827A1, “An antifungal composition comprising natamycin and at least one insecticide” (priority 2021, published 2025).
# Columns and labels:
# Sclerotinia sclerotiorum = test: Antifungal effect against Sclerotinia sclerotiorum infection on wounded skin of broad bean pods (rot area, Colby synergy); format: in vivo; conditions: natamycin-insecticide 15-0 ppm
# Fusarium culmorum = test: Antifungal effect against Fusarium culmorum on PDA petri dishes (fungal growth area, Colby synergy); format: cell-based; conditions: natamycin-insecticide 0.5-0 ppm
# Excerpt: The Colby equation (Colby, 1967. Weeds 15:20-22) calculates the expected antifungal activity (E in %) of a combination comprising more than one active ingredients:
# (§1) wherein X and Y are the observed antifungal activities (in %) of the individual active ingredients x and y, respectively. If the observed antifungal activity (O in %) of the combination exceeds the expected antifungal activity (E in %) of the combination and the synergy factor O/E is thus >1.0, the combined application of the active ingredients leads to a synergistic antifungal effect.
# Agar medium was prepared by mixing in a 100 ml Duran bottle 3.9 g of potato dextrose agar (PDA) from Carl-Roth (Carl-Roth GmbH+Co. KG, Karlsruhe, Germany) with 100 ml deionized water and autoclaving the Duran bottle at 120° C. for 15 minutes. After autoclaving, the solution was cooled by putting it in a 48° C. oven for about two hours. Afterward the semi-liquid PDA solution was carefully mixed with natamycin and/or insecticide dosages as specified in Table 5 showing the interaction results on petri dishes. The medium in the Duran bottle was divided over 5 petri dishes (90×15 mm), 20 ml per petri dish by using 25 ml serological pipets (ROTILABO®; Carl-Roth). Each natamycin and/or insecticide treatment was performed in fivefold.
# Fungal spore suspensions were prepared by drenching a fully grown petri dish with sterile water. The fungus was scraped off and filtered through a Miracloth (pore size: 22-25 μm) (Merck KGaA, Darmstadt, Germany; catalogue number: 475855). The number of spores were counted with a hemocytometer and fungal suspension was adjusted to 10^6 spores per ml. Afterward, 5 μl of prepared spore suspension was pipetted on the center of the agar plate. The plates were incubated at 25° C. Measurement of the fungal growth was done using callipers at different time points. Assessment of the infection area was 6 days after inoculation.
# The insecticide levels and the period after which the assessments were made are presented as specified for the different insecticides are presented in Table 5 below. Synergistic calculation was done using the Colby equation. Experiment was performed in 5-fold.
# The experiments were performed as described in Example 3. Assessment of the infection area was 6 days after inoculation. Experiment was performed in 5-fold.
# The experiments were performed as described in Example 3. The product KARATE ZEON® of company Syngenta containing the active ingredient lambda-cyhalothrin belonging to IRAC Group 3 was tested. Assessment of the infection area was 3 days after inoculation. Experiment was performed in 5-fold.
# Botrytis cinerea = test: Antifungal effect against Botrytis cinerea infection on wounded peel of banana fruits (Colby synergy); format: in vivo; conditions: natamycin-insecticide 1:0 ppm
# Excerpt: as §1
# Application: The broad bean pods were washed under tap water, and were subsequently surface sterilized by placing them in a 0.1% sodium hypochlorite solution for 5 minutes. The pods were then rinsed with tap water and dried. Transparent plastic containers were prepared by placing a piece of absorbing paper in the container and adding 25 ml of water, one container per treatment was used. The pods were cut in two, and two halve pods were incubated per box. The skin of broad bean pods was damaged with a needle, ø 2 mm and to a depth of about 3 mm into the fruit, with—depending on the size of the pod—2 to 4 wounds per half pod. In total, 6 wounds were incubated per treatment, of which 1 was used as a control. A volume of 20 microliter of a natamycin/insecticide composition, as presented herein above, was applied by pipette to each wound. The treatments were then left to air-dry. Once dried, a mycelium plug of Sclerotinia sclerotiorum was placed upside down on each wound, so that the mycelium was in direct contact with the wound. Per treatment 5 wounds were inoculated with the fungus, while the 6th and last wound was used as negative non-inoculated control. After inoculation, the containers were directly closed with a transparent plastic lid.
# The infection area was measured 5 days after inoculation.
# A few changes were made for the banana experiments: 5 wounds per banana were made, on each wound 40 microliter of treatments was pipetted. The treatments were then left to air-dry. Once dried, 2 microliter of a freshly prepared inoculum was pipetted on four of the wounds. The inoculum consists of […] potato dextrose broth (PDB) medium containing Botrytis cinerea spores at a concentration of 10^6 spores per ml. The fifth wound was used as negative non-inoculated control. Experiment was performed in 4-fold.
# Assessment of the infection area was performed 3 days after inoculation. Experiment was performed in 4-fold.
# Imidacloprid was formulated as described in Table 2. Assessment of the efficacy was 5 days after inoculation. Experiment was performed in 4-fold.
# [1] = 23 h after inoculation, Table 4
# [2] = 23 h after inoculation, Table 7
# [3] = 23 hours after inoculation, Table 9
# [4] = 30 h after inoculation, Table 3
# [5] = 31 hours after inoculation, Table 8
# [6] = 3 days after inoculation, Table 11
# [7] = 6 days after inoculation, Table 6
# [8] = 3 days after inoculation, Table 14A
# [9] = 3 days after inoculation, Table 14B
# [10] = 5 days after inoculation, Table 12A
# [11] = 5 days after inoculation, Table 12B
# [12] = 5 days after inoculation, Table 18A
# [13] = 5 days after inoculation, Table 18B
smiles,measurement,setting,value
C[C@@H]1C/C=C/C=C/C=C/C=C/[C@H](O[C@@H]2O[C@H](C)[C@@H](O)[C@H](N)[C@@H]2O)C[C@@H]2O[C@](O)(C[C@@H](O)C[C@H]3O[C@@H]3/C=C/C(=O)O1)C[C@H](O)[C@H]2C(=O)O [natamycin],Avg infected area,Sclerotinia sclerotiorum; [1],104.2 mm2
same,Observed antifungal activity,Sclerotinia sclerotiorum; [1],33.5%
same,Avg infected area,Sclerotinia sclerotiorum; [2],99.9 mm2
same,Observed antifungal activity,Sclerotinia sclerotiorum; [2],26.9%
same,Avg infected area,Sclerotinia sclerotiorum; [3],66.2 mm2
same,Observed antifungal activity,Sclerotinia sclerotiorum; [3],41.8%
same,Avg infected area,Sclerotinia sclerotiorum; [4],278.54 mm^2
same,Observed antifungal activity,Sclerotinia sclerotiorum; [4],11.4%
same,Avg infected area,Sclerotinia sclerotiorum; [5],172.7 mm2
same,Observed antifungal activity,Sclerotinia sclerotiorum; [5],33.1%
same,Avg infected area,Fusarium culmorum; [6],297.7 mm2
same,Observed antifungal activity,Fusarium culmorum; [6],17.9%
same,Avg infected area,Fusarium culmorum; [7],810.2 mm2
same,Observed antifungal activity,Fusarium culmorum; [7],18.8%
same,Avg infected area,Botrytis cinerea; [8],9.2 mm2
same,Observed antifungal activity,Botrytis cinerea; [8],18.8%
same,Avg infected area,Botrytis cinerea; [9],5.5 mm2
same,Observed antifungal activity,Botrytis cinerea; [9],43.9%
same,Avg infected area,Botrytis cinerea; [10],52.6 mm2
same,Observed antifungal activity,Botrytis cinerea; [10],18.0%
same,Avg infected area,Botrytis cinerea; [11],84.7 mm2
same,Observed antifungal activity,Botrytis cinerea; [11],14.3%
same,Avg infected area,Botrytis cinerea; [12],30.7 mm2
same,Observed antifungal activity,Botrytis cinerea; [12],37.6%
same,Avg infected area,Botrytis cinerea; [13],25.9 mm2
same,Observed antifungal activity,Botrytis cinerea; [13],11.6%
